# Laboratory results from US20230364070A1, “PYRROLO[3,2-C]PYRIDIN-4-ONE DERIVATIVES USEFUL IN THE TREATMENT OF CANCER” (Scorpion Therapeutics, Inc., priority 2020, published 2023).
# Key:
# Assay type in all cases: cell-based
# [1] = molecular target: T1, Ba/F3 cells with EGFR WT (Homo sapiens, UniProt P00533); assay: EGFR activity: Ba/F3 cell viability (CellTiter-Glo, 72 h), EGFR WT; conditions: read-out: BaF3 WT IC50
# T1 construct: expressed in transfected cells; host or cells: Ba/F3 (murine pro-B cells), retroviral transduction, puromycin selection, maintained with EGF
# T1 sequence (P00533 25-1210): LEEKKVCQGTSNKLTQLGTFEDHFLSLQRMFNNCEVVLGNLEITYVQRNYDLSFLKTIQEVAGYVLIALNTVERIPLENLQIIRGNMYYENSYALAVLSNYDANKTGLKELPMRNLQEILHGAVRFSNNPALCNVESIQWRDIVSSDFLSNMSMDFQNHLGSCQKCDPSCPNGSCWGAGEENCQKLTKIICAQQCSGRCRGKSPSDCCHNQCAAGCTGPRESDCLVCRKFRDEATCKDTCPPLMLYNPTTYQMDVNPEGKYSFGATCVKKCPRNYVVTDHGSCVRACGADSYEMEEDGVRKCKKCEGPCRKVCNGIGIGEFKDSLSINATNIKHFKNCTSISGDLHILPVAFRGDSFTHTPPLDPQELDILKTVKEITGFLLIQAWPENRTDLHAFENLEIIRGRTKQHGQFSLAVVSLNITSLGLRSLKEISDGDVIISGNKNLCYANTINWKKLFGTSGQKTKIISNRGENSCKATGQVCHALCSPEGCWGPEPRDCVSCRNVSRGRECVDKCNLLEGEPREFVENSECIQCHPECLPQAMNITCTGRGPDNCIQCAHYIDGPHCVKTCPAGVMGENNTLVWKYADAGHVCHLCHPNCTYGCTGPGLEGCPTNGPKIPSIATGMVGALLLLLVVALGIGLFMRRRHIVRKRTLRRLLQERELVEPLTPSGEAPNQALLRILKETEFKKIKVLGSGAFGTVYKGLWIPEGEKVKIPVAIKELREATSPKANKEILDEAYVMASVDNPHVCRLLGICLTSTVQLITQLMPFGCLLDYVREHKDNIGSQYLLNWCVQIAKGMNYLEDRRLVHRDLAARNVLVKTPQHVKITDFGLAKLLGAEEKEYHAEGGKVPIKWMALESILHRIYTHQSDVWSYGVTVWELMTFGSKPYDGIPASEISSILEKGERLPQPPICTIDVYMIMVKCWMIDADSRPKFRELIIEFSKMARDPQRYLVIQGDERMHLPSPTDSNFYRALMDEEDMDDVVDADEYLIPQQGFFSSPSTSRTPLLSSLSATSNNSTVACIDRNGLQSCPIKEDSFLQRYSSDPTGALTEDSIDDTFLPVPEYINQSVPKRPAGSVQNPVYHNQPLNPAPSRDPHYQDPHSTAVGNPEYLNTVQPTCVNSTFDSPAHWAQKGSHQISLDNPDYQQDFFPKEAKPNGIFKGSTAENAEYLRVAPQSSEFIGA
# [2] = molecular target: T2, Ba/F3 cells with EGFR exon 20 ASV Ins V769_D770 (Homo sapiens, UniProt P00533, INS769ASV); assay: EGFR activity: Ba/F3 cell viability (CellTiter-Glo, 72 h), EGFR exon 20 ASV insertion; conditions: EGFR exon 20 ASV Ins V769_D770, cell viability, read-out: BaF3 ASV IC50
# T2 construct: expressed in transfected cells; host or cells: Ba/F3 (murine pro-B cells), retroviral transduction, puromycin selection, IL3-independent pool
# T2 sequence (P00533 with tags, fused parts or gaps INS769ASV): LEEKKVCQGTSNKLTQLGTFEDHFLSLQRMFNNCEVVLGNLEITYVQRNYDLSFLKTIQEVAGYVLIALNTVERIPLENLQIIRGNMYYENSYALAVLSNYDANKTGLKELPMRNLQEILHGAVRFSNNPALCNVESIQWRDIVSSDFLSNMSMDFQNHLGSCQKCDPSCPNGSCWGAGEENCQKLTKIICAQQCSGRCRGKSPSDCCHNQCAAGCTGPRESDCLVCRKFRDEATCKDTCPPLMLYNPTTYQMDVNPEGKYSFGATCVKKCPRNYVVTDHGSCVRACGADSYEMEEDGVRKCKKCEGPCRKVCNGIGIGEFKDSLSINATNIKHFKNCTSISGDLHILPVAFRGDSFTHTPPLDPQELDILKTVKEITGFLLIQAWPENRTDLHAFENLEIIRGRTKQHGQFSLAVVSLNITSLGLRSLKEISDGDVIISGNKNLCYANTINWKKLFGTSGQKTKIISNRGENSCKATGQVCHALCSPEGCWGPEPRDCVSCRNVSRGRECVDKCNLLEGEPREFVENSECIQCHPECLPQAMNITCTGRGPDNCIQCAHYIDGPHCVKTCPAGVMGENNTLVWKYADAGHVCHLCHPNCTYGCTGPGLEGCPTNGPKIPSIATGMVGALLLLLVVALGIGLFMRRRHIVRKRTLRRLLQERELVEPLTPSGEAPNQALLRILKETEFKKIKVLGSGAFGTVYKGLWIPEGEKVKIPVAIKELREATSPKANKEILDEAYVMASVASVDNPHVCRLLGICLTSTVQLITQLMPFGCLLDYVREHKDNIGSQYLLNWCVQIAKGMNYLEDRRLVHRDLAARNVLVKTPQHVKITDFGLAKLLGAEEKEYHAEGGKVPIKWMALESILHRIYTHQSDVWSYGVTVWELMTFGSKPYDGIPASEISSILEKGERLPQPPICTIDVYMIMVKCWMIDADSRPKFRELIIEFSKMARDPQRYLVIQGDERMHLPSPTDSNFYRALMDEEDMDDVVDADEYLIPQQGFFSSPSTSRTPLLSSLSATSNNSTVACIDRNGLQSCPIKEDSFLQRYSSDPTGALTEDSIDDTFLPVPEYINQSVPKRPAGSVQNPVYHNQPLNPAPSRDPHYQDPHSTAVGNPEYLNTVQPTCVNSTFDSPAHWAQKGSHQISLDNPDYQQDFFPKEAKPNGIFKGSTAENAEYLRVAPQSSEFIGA
# [3] = molecular target: T3, Ba/F3 cells with EGFR exon 20 NPG Ins D770_N771 (Homo sapiens, UniProt P00533, INS770NPG); assay: EGFR activity: Ba/F3 cell viability (CellTiter-Glo, 72 h), EGFR exon 20 NPG insertion; conditions: EGFR exon 20 NPG Ins D770_N771, cell viability, read-out: BaF3 NPG IC50
# T3 construct: expressed in transfected cells; host or cells: Ba/F3 (murine pro-B cells), retroviral transduction, puromycin selection, IL3-independent pool
# T3 sequence (P00533 with tags, fused parts or gaps INS770NPG): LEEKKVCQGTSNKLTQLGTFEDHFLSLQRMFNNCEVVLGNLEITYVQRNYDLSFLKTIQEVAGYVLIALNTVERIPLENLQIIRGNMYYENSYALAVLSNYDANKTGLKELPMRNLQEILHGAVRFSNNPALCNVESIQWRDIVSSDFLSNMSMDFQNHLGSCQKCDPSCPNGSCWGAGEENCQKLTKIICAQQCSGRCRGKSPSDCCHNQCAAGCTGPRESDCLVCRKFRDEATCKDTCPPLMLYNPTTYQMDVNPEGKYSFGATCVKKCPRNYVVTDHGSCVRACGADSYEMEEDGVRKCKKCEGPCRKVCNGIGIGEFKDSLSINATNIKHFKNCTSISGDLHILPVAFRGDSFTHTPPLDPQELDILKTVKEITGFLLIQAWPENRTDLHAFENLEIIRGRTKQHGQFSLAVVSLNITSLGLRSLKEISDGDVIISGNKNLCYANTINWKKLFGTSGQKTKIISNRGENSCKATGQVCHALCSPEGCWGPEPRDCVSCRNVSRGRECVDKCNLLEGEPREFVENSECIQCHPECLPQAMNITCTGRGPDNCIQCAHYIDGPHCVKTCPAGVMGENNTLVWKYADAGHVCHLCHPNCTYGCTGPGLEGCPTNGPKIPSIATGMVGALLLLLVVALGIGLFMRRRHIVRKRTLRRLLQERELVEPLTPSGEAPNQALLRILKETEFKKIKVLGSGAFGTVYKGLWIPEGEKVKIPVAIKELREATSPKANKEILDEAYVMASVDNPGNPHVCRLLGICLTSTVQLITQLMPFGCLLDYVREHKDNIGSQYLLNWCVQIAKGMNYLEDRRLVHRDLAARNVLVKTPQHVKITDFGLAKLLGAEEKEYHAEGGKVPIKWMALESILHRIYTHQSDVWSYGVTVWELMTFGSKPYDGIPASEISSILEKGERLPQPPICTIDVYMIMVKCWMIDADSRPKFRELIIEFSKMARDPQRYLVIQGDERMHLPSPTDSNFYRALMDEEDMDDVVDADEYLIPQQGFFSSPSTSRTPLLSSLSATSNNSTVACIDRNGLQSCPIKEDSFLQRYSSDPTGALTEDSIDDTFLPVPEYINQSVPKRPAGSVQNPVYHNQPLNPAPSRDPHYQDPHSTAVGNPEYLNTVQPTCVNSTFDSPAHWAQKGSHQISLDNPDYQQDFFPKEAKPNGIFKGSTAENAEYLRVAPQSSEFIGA
Compound,IC50 [1] [nM],IC50 [2] [nM],IC50 [3] [nM]
"COc1c(F)cccc1Nc1c(-c2ccncc2C#C[C@@H]2CCCO2)[nH]c2c1C(=O)NCC2 (single isomer, unassigned) [Compound 148a]",> 1000,100 to 1000,
"COc1c(F)cccc1Nc1c(-c2ccncc2C#CC2CCCO2)[nH]c2c1C(=O)NCC2 (single isomer, unassigned) [Compound 148b]",> 1000,100 to 1000,
"COc1c(F)cccc1Nc1c(-c2ccncc2OCCOC2CC2)[nH]c2c1C(=O)NCC2 [Compound 135, 2-(3-(2-cyclopropoxyethoxy)pyridin-4-yl)-3-((3-fluoro-2-methoxyphenyl)amino)-1,5,6,7-tetrahydro-4H-pyrrolo[3,2-c]pyridin-4-one]",> 1000,,> 1000
"COc1c(Cl)cccc1Nc1c(-c2ccncc2OC[C@@H]2CCCN2S(C)(=O)=O)[nH]c2c1C(=O)NCC2 [Compound 142a, (S)-3-((3-chloro-2-methoxyphenyl)amino)-2-(3-((1-(methylsulfonyl)pyrrolidin-2-yl)methoxy)pyridin-4-yl)-1,5,6,7-tetrahydro-4H-pyrrolo[3,2-c]pyridin-4-one]",100 to 1000,,100 to 1000
COc1c(F)cccc1Nc1c(-c2ccncc2C#CC(C)(C)OC)[nH]c2c1C(=O)NCC2 [compound 149],> 1000,,100 to 1000
"C=CC(=O)N1CCC[C@H]1COc1cnccc1-c1[nH]c2c(c1Nc1cccc(Cl)c1CC)C(=O)NCC2 [compound 216, 3-[(3-chloro-2-ethylphenyl)amino]-2-(3-{[(2S)-1-(prop-2-enoyl)pyrrolidin-2-yl]methoxy}pyridin-4-yl)-1H,5H,6H,7H-pyrrolo[3,2-c]pyridin-4-one]",100 to 1000,< 100,< 100
"C=CC(=O)N1CC(C)(C)C[C@@H]1C#Cc1cnccc1-c1[nH]c2c(c1Nc1cccc(Cl)c1OC)C(=O)NCC2 [compound 235, 3-[(3-chloro-2-methoxyphenyl)amino]-2-(3-{2-[(2R)-4,4-dimethyl-1-(prop-2-enoyl)pyrrolidin-2-yl]ethynyl}pyridin-4-yl)-1H,5H,6H,7H-pyrrolo[3,2-c]pyridin-4-one]",< 100,< 100,< 100
"C=CC(=O)N1[C@H](C)CC[C@@H]1C#Cc1cnccc1-c1[nH]c2c(c1Nc1cccc(Cl)c1OC)C(=O)NCC2 [compound 238, 3-[(3-chloro-2-methoxyphenyl)amino]-2-(3-{2-[(2R,5R)-5-methyl-1-(prop-2-enoyl)pyrrolidin-2-yl]ethynyl}pyridin-4-yl)-1H,5H,6H,7H-pyrrolo[3,2-c]pyridin-4-one]",100 to 1000,< 100,< 100
"C=CC(=O)N1[C@H](C)CC[C@H]1C#Cc1cnccc1-c1[nH]c2c(c1Nc1cccc(Cl)c1OC)C(=O)NCC2 [compound 239, 3-[(3-chloro-2-methoxyphenyl)amino]-2-(3-{2-[(2S,5R)-5-methyl-1-(prop-2-enoyl)pyrrolidin-2-yl]ethynyl}pyridin-4-yl)-1H,5H,6H,7H-pyrrolo[3,2-c]pyridin-4-one]",< 100,< 100,< 100
"C=CC(=O)N1[C@H](C)CC[C@@H]1C#Cc1cnccc1-c1[nH]c2c(c1Nc1cccc(F)c1OC)C(=O)NCC2 [compound 256, 3-[(3-fluoro-2-methoxyphenyl)amino]-2-(3-{2-[(2R,5R)-5-methyl-1-(prop-2-enoyl)pyrrolidin-2-yl]ethynyl}pyridin-4-yl)-1H,5H,6H,7H-pyrrolo[3,2-c]pyridin-4-one]",100 to 1000,< 100,< 100
"C=CC(=O)NC1(C#Cc2cnccc2-c2[nH]c3c(c2Nc2cccc(F)c2OC)C(=O)NCC3)CCC1 [compound 262, N-{1-[2-(4-{3-[(3-fluoro-2-methoxyphenyl)amino]-4-oxo-1H,5H,6H,7H-pyrrolo[3,2-c]pyridin-2-yl}pyridin-3-yl)ethynyl]cyclobutyl}prop-2-enamide]",100 to 1000,< 100,< 100
"CC#CC(=O)N1CCOC[C@@H]1COc1cnccc1-c1[nH]c2c(c1Nc1cccc(F)c1OC)C(=O)NCC2 [compound 293, 2-(3-{[(3R)-4-(but-2-ynoyl)morpholin-3-yl]methoxy}pyridin-4-yl)-3-[(3-fluoro-2-methoxyphenyl)amino]-1H,5H,6H,7H-pyrrolo[3,2-c]pyridin-4-one]",> 1000,> 1000,> 1000
"COc1c(F)cccc1Nc1c(-c2ccncc2C#C[C@H]2CCCN2C(=O)/C=C/CN(C)C)[nH]c2c1C(=O)NCC2 [compound 303, 2-(3-{2-[(2R)-1-[(2E)-4-(dimethylamino)but-2-enoyl]pyrrolidin-2-yl]ethynyl}pyridin-4-yl)-3-[(3-fluoro-2-methoxyphenyl)amino]-1H,5H,6H,7H-pyrrolo[3,2-c]pyridin-4-one]",> 1000,100 to 1000,100 to 1000
"C=CC(=O)N1CCC[C@]1(C)C#Cc1cnccc1-c1[nH]c2c(c1Nc1cccc(F)c1C)C(=O)NCC2 [compound 304, 3-[(3-fluoro-2-methylphenyl)amino]-2-(3-{2-[(2R)-2-methyl-1-(prop-2-enoyl)pyrrolidin-2-yl]ethynyl}pyridin-4-yl)-1H,5H,6H,7H-pyrrolo[3,2-c]pyridin-4-one]",< 100,< 100,< 100
"C=CC(=O)N1CC[C@@H]1[C@H](C)Oc1cnccc1-c1[nH]c2c(c1Nc1cccc(F)c1OC)C(=O)NCC2 [compound 310, 3-[(3-fluoro-2-methoxyphenyl)amino]-2-{3-[(1S)-1-[(2R)-1-(prop-2-enoyl)azetidin-2-yl]ethoxy]pyridin-4-yl}-1H,5H,6H,7H-pyrrolo[3,2-c]pyridin-4-one]",> 1000,100 to 1000,100 to 1000
CC#CC(=O)N1CC[C@H]1C#Cc1cnccc1-c1[nH]c2c(c1Nc1cccc(Cl)c1OC)C(=O)NCC2 [compound 371],100 to 1000,< 100,< 100
CC#CC(=O)N1CC[C@@H]1C#Cc1cnccc1-c1[nH]c2c(c1Nc1cccc(Cl)c1OC)C(=O)NCC2 [compound 372],100 to 1000,< 100,< 100
C=CC(=O)NC1(C#Cc2cnccc2-c2[nH]c3c(c2Nc2cccc(F)c2OC)C(=O)NCC3)CC2(COC2)C1 [compound 402],> 1000,100 to 1000,100 to 1000
COc1c(F)cccc1Nc1c(-c2ccncc2C#C[C@H]2CCC[C@H]2OC)[nH]c2c1C(=O)NCC2 [compound 485],100 to 1000,< 100,

Compound,IC50 [1] [nM],IC50 [2] [nM],IC50 [3] [nM]
COc1c(F)cccc1Nc1c(-c2ccncc2C#C[C@@H]2CCC[C@@H]2OC)[nH]c2c1C(=O)NCC2 [compound 486],> 1000,100 to 1000,
COc1c(Cl)cccc1Nc1c(-c2ccncc2C#CC2(OC)COC2)[nH]c2c1C(=O)NCC2 [compound 491],100 to 1000,< 100,
COc1ccccc1C#Cc1cnccc1-c1[nH]c2c(c1Nc1cccc(Cl)c1OC)C(=O)NCC2 [compound 497],100 to 1000,< 100,
Cc1c(F)cccc1Nc1c(-c2ccncc2C#CC2CC2)[nH]c2c1C(=O)NCC2 [compound 498],> 1000,100 to 1000,
COCC#Cc1cnccc1-c1[nH]c2c(c1Nc1cccc(F)c1C)C(=O)NCC2 [compound 500],> 1000,100 to 1000,
COc1ccccc1C#Cc1cnccc1-c1[nH]c2c(c1Nc1cccc(F)c1C)C(=O)NCC2 [compound 501],100 to 1000,< 100,
COc1ccc(C#Cc2cnccc2-c2[nH]c3c(c2Nc2cccc(F)c2C)C(=O)NCC3)cn1 [compound 502],> 1000,100 to 1000,
COc1cccnc1C#Cc1cnccc1-c1[nH]c2c(c1Nc1cccc(F)c1C)C(=O)NCC2 [compound 503],100 to 1000,100 to 1000,
Cc1c(F)cccc1Nc1c(-c2ccncc2C#CC2CCOCC2)[nH]c2c1C(=O)NCC2 [compound 504],> 1000,100 to 1000,
Cc1c(F)cccc1Nc1c(-c2ccncc2C#CCN2CCOCC2)[nH]c2c1C(=O)NCC2 [compound 505],> 1000,> 1000,
Cc1c(F)cccc1Nc1c(-c2ccncc2C#Cc2cnn(C)c2)[nH]c2c1C(=O)NCC2 [compound 506],> 1000,100 to 1000,
Cc1c(F)cccc1Nc1c(-c2ccncc2C#CC2(C)COC2)[nH]c2c1C(=O)NCC2 [compound 507],> 1000,100 to 1000,
Cc1c(F)cccc1Nc1c(-c2ccncc2C#CC2CCOC2)[nH]c2c1C(=O)NCC2 (centres unmarked) [compound 508],> 1000,100 to 1000,
Cc1c(F)cccc1Nc1c(-c2ccncc2C#CC2COC2)[nH]c2c1C(=O)NCC2 [compound 509],> 1000,100 to 1000,
C=CC(=O)N1CC(F)(F)C[C@H]1C#Cc1cnccc1-c1[nH]c2c(c1Nc1cccc(Cl)c1OC)C(=O)NCC2 [compound 520],< 100,< 100,
COC(C)C#Cc1cnccc1-c1[nH]c2c(c1Nc1cccc(F)c1C)C(=O)NCC2 (centres unmarked) [compound 524],> 1000,100 to 1000,
COc1c(Cl)cccc1Nc1c(-c2ccncc2C#CC2CCC2)[nH]c2c1C(=O)NCC2 [compound 525],> 1000,< 100,
C=CC(=O)N1CCC1C#Cc1cnccc1-c1[nH]c2c(c1Nc1cccc(F)c1OC)C(=O)NCC2 (centres unmarked) [compound 544],< 100,< 100,
COc1c(Cl)cccc1Nc1c(-c2ccncc2C#CC2CC(F)(F)C2)[nH]c2c1C(=O)NCC2 [compound 548],> 1000,100 to 1000,
